The test system of one experiment is HL-60 cells. The experiment can be described thus: HL-60 differentiation (nitro blue tetrazolium reduction). Type of experiment: cell-based, human. The conditions noted are these: FIG. 2; for EC50: differentiation of HL-60 cells into monocytes, read-out: EC50, HL-60 cell differentiation. How it is done: The study drugs were dissolved in ethanol and the concentrations determined using UV spectrophotometry. Serial dilutions were prepared so that a range of drug concentrations could be tested without changing the final concentration of ethanol (≦0.2%) present in the cell cultures.
Human promyelocytic leukemia (HL60) cells were grown in RPMI-1640 medium containing 10% fetal bovine serum. The cells were incubated at 37° C. in the presence of 5% CO2.
HL60 cells were plated at 1.2×10^5 cells/ml. Eighteen hours after plating, cells in duplicate were treated with drug. Four days later, the cells were harvested and a nitro blue tetrazolium reduction assay was performed (Collins et al., 1979; J. Exp. Med. 149:969-974). The percentage of differentiated cells was determined by counting a total of 200 cells and recording the number that contained intracellular black-blue formazan deposits. Verification of differentiation to monocytic cells was determined by measuring phagocytic activity (data not shown).

Experiment [1] relates to 24-hydroxylase (24Ohase) gene promoter. The experiment can be described thus: In vitro transcription assay, luciferase reporter in ROS 17/2.8 (bone) cells. Type of experiment: cell-based. The conditions noted are these: FIG. 3; for EC50: ROS 17/2.8 cells, 16 h after dosing, read-out: EC50, transcriptional activity in bone cells (24-hydroxylase gene). How it is done: Transcription activity was measured in ROS 17/2.8 (bone) cells that were stably transfected with a 24-hydroxylase (24Ohase) gene promoter upstream of a luciferase reporter gene (Arbour et al., 1998). Cells were given a range of doses. Sixteen hours after dosing the cells were harvested and luciferase activities were measured using a luminometer.
RLU=relative luciferase units.

Experiment [2] concerns vitamin D-deficient rats. The experiment can be described thus: Bone calcium mobilization (serum calcium). The format is in vivo, rat. Particulars: FIG. 4; for serum calcium (bone calcium mobilization): 260 pmol/day ip for 4 consecutive days, rats on low calcium diet (0.02%); for bone calcium mobilization activity (in words): vitamin D-deficient rats, low calcium diet. As for the experimental part: (§1) Male, weanling Sprague-Dawley rats were placed on Diet 11 (0.47% Ca) diet +AEK oil for one week followed by Diet 11 (0.02% Ca)+AEK oil for 3 weeks. The rats were then switched to a diet containing 0.47% Ca for one week followed by two weeks on a diet containing 0.02% Ca. Dose administration began during the last week on 0.02% calcium diet. Four consecutive ip doses were given approximately 24 hours apart. Twenty-four hours after the last dose, blood was collected from the severed neck and the concentration of serum calcium determined as a measure of bone calcium mobilization. The first 10 cm of the intestine was also collected for intestinal calcium transport analysis using the everted gut sac method.

The test system of experiment [3] is vitamin D-deficient rats. The experiment can be described thus: Intestinal calcium transport (everted gut sac method). The format is in vivo, rat. The conditions noted are these: FIG. 5. How it is done:
as §1

The target in experiment [4] is T1, full-length recombinant rat vitamin D receptor (Rattus norvegicus, UniProt P13053).
T1 construct: Full-length recombinant rat receptor was expressed in E. coli BL21 (DE3) Codon Plus RIL cells; histidine tag (C); made in house; host or cells: E. coli BL21 (DE3) Codon Plus RIL
T1 sequence (P13053 1-423): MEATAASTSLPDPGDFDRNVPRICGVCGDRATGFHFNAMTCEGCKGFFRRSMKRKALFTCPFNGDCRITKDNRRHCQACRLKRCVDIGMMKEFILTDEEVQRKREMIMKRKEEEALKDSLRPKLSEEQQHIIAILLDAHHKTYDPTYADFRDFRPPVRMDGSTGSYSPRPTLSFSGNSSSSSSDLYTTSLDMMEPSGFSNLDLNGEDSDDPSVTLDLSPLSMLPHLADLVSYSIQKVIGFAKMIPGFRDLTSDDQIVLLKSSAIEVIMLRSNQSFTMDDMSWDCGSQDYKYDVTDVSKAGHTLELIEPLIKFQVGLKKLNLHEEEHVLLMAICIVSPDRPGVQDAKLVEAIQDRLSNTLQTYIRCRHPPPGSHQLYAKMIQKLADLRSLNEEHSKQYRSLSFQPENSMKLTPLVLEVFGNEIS
The experiment can be described thus: Vitamin D receptor binding, competition with [3H]-1,25(OH)2D3. The conditions noted are these: FIG. 1. As for the experimental part:
Full-length recombinant rat receptor was expressed in E. coli BL21 (DE3) Codon Plus RIL cells and purified to homogeneity using two different column chromatography systems. The first system was a nickel affinity resin that utilizes the C-terminal histidine tag on this protein. The protein that was eluted from this resin was further purified using ion exchange chromatography (S-Sepharose Fast Flow). Aliquots of the purified protein were quick frozen in liquid nitrogen and stored at −80° C. until use. For use in binding assays, the protein was diluted in TEDK50 (50 mM Tris, 1.5 mM EDTA, pH7.4, 5 mM DTT, 150 mM KCl) with 0.1% Chaps detergent. The receptor protein and ligand concentration were optimized such that no more than 20% of the added radiolabeled ligand was bound to the receptor.
Radiolabeled and unlabeled ligands were added to 100 mcl of the diluted protein at a final ethanol concentration of ≦10%, mixed and incubated overnight on ice to reach binding equilibrium. The following day, 100 mcl of hydroxylapatite slurry (50%) was added to each tube and mixed at 10-minute intervals for 30 minutes. […] Total binding was determined from the tubes containing only radiolabeled ligand.

Read-outs that look alike come from different tables or passages of the source.

One may read the EC50 as the concentration that produces a half-maximal response. On to `C=C1/C(=C\C=C2/CCC[C@]3(C)[C@@H]([C@H](C)CCCC(C)(C)O)CC[C@@H]23)C[C@@H](O)C[C@@H]1O` [1,25(OH)2D3, 1α,25-dihydroxyvitamin D3], for which the EC50 in the experiment with HL-60 cells was 2 nM; in experiment [1], 0.2 nM. Besides, the “serum calcium (bone calcium mobilization)” value in the experiment with vitamin D-deficient rats [2] stood at 6.1 mg/dL. The “bone calcium mobilization activity (in words)” value in the experiment with vitamin D-deficient rats [2] is listed as “increased serum calcium levels at all dosages”.
The term Ki denotes a dissociation constant, usually derived from enzyme kinetics or from competition with a known ligand. As to `C=C1[C@H](O)CC(=C/C=C2\CCC[C@]3(C)[C@@H]([C@@H](C)/C=C/CC(C)(C)O)CC[C@@H]23)C[C@H]1O` [Compound N-23, (20S,22E)-2-Methylene-19-nor-22-ene-1α,25-dihydroxyvitamin D3], in the experiment with HL-60 cells (Homo sapiens), the EC50 came out at 0.1 nM. Besides, the “potency on HL-60 cell differentiation relative to 1,25(OH)2D3” value in the experiment on HL-60 cells (fold more potent than 1,25(OH)2D3) was “about 10 times”. Also, in experiment [1], the EC50 came to 0.02 nM. Besides, in experiment [1] (bone cells, fold more potent than 1,25(OH)2D3), the “potency in increasing transcription of the 24-hydroxylase gene relative to 1,25(OH)2D3” value is on record as “about 10 times”. Besides, the “intestinal calcium transport activity compared to 1,25(OH)2D3” value in the experiment with vitamin D-deficient rats [3] (32 pmol/day for 4 consecutive days) is listed as “less activity”. Besides, the “intestinal calcium transport, dose dependence (in words)” value in the experiment on vitamin D-deficient rats [3] (vitamin D-deficient rats) is given as “dose dependent manner”. In addition, in the experiment on vitamin D-deficient rats [2], the “serum calcium (bone calcium mobilization)” value stood at 6.8 mg/dL and the “bone calcium mobilization activity (in words)” value was “slightly more bone calcium mobilization activity”. Further, the “affinity to the nuclear vitamin D receptor compared to 1,25-(OH)2D3 (in words)” value in experiment [4] (full length recombinant rat VDR) is on record as “same affinity”. Also, the Ki in experiment [4] (full-length recombinant rat vitamin D receptor, read-out: Ki, competition with [3H]-1,25(OH)2D3 for binding to VDR) was 0.06 nM.

Source of the values: patent publication US8445468B2, “(20S,22E)-2-methylene-19-nor-22-ene-1α,25-dihydroxyvitamin D3” (Wisconsin Alumni Research Foundation, priority 2009, dated 2013).
